In PubChem BioAssay AID248 (DTP/NCI, 2004):
Several values for one entry are separate records, joined by “and”; a condition that tells them apart may be missing. Equal entries are not always repeated. Inconclusive results and toxic doses are left out. No stated cut-off is given here; in the data, active means T/C of 150% or more; inactive means T/C below 125%.

Tested on: L1210 leukemia ip in BDF1 mice, survival T/C
Experiment: NCI In Vivo Anticancer Drug Screen. Data for tumor model L1210 Leukemia (intraperitoneal) in B6D2F1 (BDF1) mice
Settings: endpoint: mean survival time, higher = longer survival
How it was run: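 Transplantable tumor model; survival measured in treated vs vehicle control mice. Value = treated/control.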

[1] = dose: 100.0 mg/kg/injection, schedule: Q01DX009 (ip), vehicle: Klucel (hydroxypropylcellulose) (HPC)
[2] = dose: 200.0 mg/kg/injection, schedule: Q01DX009 (ip), vehicle: Klucel (hydroxypropylcellulose) (HPC)
[3] = dose: 400.0 mg/kg/injection, schedule: Q01DX009 (ip), vehicle: Klucel (hydroxypropylcellulose) (HPC)
[4] = dose: 100.0 mg/kg/injection, schedule: Q01DX001 (ip), vehicle: carboxymethylcellulose (CMC)
[5] = dose: 200.0 mg/kg/injection, schedule: Q01DX001 (ip), vehicle: carboxymethylcellulose (CMC)
[6] = dose: 400.0 mg/kg/injection, schedule: Q01DX001 (ip), vehicle: carboxymethylcellulose (CMC)
[7] = dose: 100.0 mg/kg/injection, schedule: Q04DX003 (ip), vehicle: Klucel (hydroxypropylcellulose) (HPC)
[8] = dose: 200.0 mg/kg/injection, schedule: Q04DX003 (ip), vehicle: Klucel (hydroxypropylcellulose) (HPC)
[9] = dose: 400.0 mg/kg/injection, schedule: Q04DX003 (ip), vehicle: Klucel (hydroxypropylcellulose) (HPC)
[10] = dose: 100.0 mg/kg/injection, schedule: Q01DX009 (ip), vehicle: saline with Tween-80
[11] = dose: 200.0 mg/kg/injection, schedule: Q01DX009 (ip), vehicle: saline with Tween-80
[12] = dose: 100.0 mg/kg/injection, schedule: Q04DX003 (ip), vehicle: saline with Tween-80

Measured: T/C

CC(=O)SCCCON1C(=O)c2ccccc2C1=O
inactive: dose: 50.0 mg/kg/injection, schedule: Q01DX001 (ip), vehicle: saline 100 % of control | dose: 100.0 mg/kg/injection, schedule: Q01DX001 (ip), vehicle: saline 96 % of control | dose: 200.0 mg/kg/injection, schedule: Q01DX001 (ip), vehicle: saline 102 % of control | dose: 400.0 mg/kg/injection, schedule: Q01DX001 (ip), vehicle: saline 102 % of control

BrCCCCCCCCCCC1(c2ccccc2)OCCO1
inactive: [1] 107 % of control | [2] 98 % of control | [3] 93 % of control

COC(=O)C1(C)CCC(c2ccc(OC)cc2)CC1=O (stereo not given)
inactive: dose: 100.0 mg/kg/injection, schedule: Q01DX009 (ip), vehicle: saline 93 % of control | dose: 100.0 mg/kg/injection, schedule: Q04DX003 (ip), vehicle: saline 92 % of control | dose: 200.0 mg/kg/injection, schedule: Q01DX009 (ip), vehicle: saline 88 % of control | dose: 200.0 mg/kg/injection, schedule: Q04DX003 (ip), vehicle: saline 95 % of control | dose: 400.0 mg/kg/injection, schedule: Q01DX009 (ip), vehicle: saline 90 % of control | dose: 400.0 mg/kg/injection, schedule: Q04DX003 (ip), vehicle: saline 88 % of control

N=Nc1ccc2c(O)c3ccccc3c(O)c2c1
inactive: [4] 107 % of control | dose: 100.0 mg/kg/injection, schedule: Q01DX009 (ip), vehicle: carboxymethylcellulose (CMC) 100 % of control and 103 % of control | dose: 100.0 mg/kg/injection, schedule: Q04DX002 (ip), vehicle: saline 103 % of control | dose: 100.0 mg/kg/injection, schedule: Q04DX003 (ip), vehicle: carboxymethylcellulose (CMC) 101 % of control | [5] 104 % of control | dose: 200.0 mg/kg/injection, schedule: Q01DX009 (ip), vehicle: carboxymethylcellulose (CMC) 98 % of control and 100 % of control | dose: 200.0 mg/kg/injection, schedule: Q04DX002 (ip), vehicle: saline 105 % of control and 106 % of control | dose: 200.0 mg/kg/injection, schedule: Q04DX003 (ip), vehicle: carboxymethylcellulose (CMC) 98 % of control | [6] 105 % of control | dose: 400.0 mg/kg/injection, schedule: Q01DX009 (ip), vehicle: carboxymethylcellulose (CMC) 94 % of control and 96 % of control | dose: 400.0 mg/kg/injection, schedule: Q04DX002 (ip), vehicle: saline 97 % of control and 105 % of control | dose: 400.0 mg/kg/injection, schedule: Q04DX003 (ip), vehicle: carboxymethylcellulose (CMC) 101 % of control

COC(=S)SCN(CSC(=S)OC)c1ccccc1Cl
inactive: dose: 50.0 mg/kg/injection, schedule: Q01DX001 (ip), vehicle: Klucel (hydroxypropylcellulose) (HPC) 111 % of control | dose: 100.0 mg/kg/injection, schedule: Q01DX001 (ip), vehicle: Klucel (hydroxypropylcellulose) (HPC) 101 % of control | [1] 109 % of control | [7] 103 % of control | dose: 200.0 mg/kg/injection, schedule: Q01DX001 (ip), vehicle: Klucel (hydroxypropylcellulose) (HPC) 103 % of control | [2] 109 % of control | [8] 95 % of control | dose: 400.0 mg/kg/injection, schedule: Q01DX001 (ip), vehicle: Klucel (hydroxypropylcellulose) (HPC) 98 % of control | [3] 109 % of control | [9] 103 % of control

OC(C=S)CS (stereo not given)
inactive: dose: 100.0 mg/kg/injection, schedule: Q04DX002 (ip), vehicle: saline with Tween-80 95 % of control | dose: 200.0 mg/kg/injection, schedule: Q04DX002 (ip), vehicle: saline with Tween-80 92 % of control | dose: 400.0 mg/kg/injection, schedule: Q04DX002 (ip), vehicle: saline with Tween-80 95 % of control

CC1(C)OC2COC(c3[nH]nc4c(=O)[nH][nH]c(=O)c34)C2O1 (stereo not given)
inactive: dose: 100.0 mg/kg/injection, schedule: Q01DX005 (ip), vehicle: saline 103 % of control | dose: 200.0 mg/kg/injection, schedule: Q01DX005 (ip), vehicle: saline 106 % of control

CN1C(=O)OC2C3NC(=O)OC3C(O)C(O)C21 (stereo not given)
inactive: dose: 50.0 mg/kg/injection, schedule: Q01DX001 (ip), vehicle: carboxymethylcellulose (CMC) 109 % of control | [4] 109 % of control | [5] 107 % of control | [6] 102 % of control

O=C(O)COC1CCC(Cl)CC1 (stereo not given)
inactive: [10] 106 % of control | dose: 100.0 mg/kg/injection, schedule: Q04DX003 (ip), vehicle: acetone 101 % of control | [11] 94 % of control | dose: 200.0 mg/kg/injection, schedule: Q04DX003 (ip), vehicle: acetone 95 % of control | dose: 400.0 mg/kg/injection, schedule: Q01DX009 (ip), vehicle: saline with Tween-80 96 % of control | dose: 400.0 mg/kg/injection, schedule: Q04DX003 (ip), vehicle: acetone 91 % of control

O=S1(=O)c2ccc(cc2)N=CC=Nc2ccc1cc2
inactive: [12] 92 % of control | dose: 200.0 mg/kg/injection, schedule: Q04DX003 (ip), vehicle: saline with Tween-80 90 % of control | dose: 400.0 mg/kg/injection, schedule: Q04DX003 (ip), vehicle: saline with Tween-80 89 % of control

CCOC(=O)C(C(=O)c1ccccc1)c1cc(NS(=O)(=O)c2ccccc2)ccc1O (stereo not given)
inactive: dose: 12.5 mg/kg/injection, schedule: Q01DX009 (ip), vehicle: saline with Tween-80 90 % of control | dose: 25.0 mg/kg/injection, schedule: Q01DX009 (ip), vehicle: saline with Tween-80 95 % of control | dose: 50.0 mg/kg/injection, schedule: Q01DX009 (ip), vehicle: saline with Tween-80 94 % of control and 97 % of control | [10] 86 % of control | [12] 91 % of control | [11] 86 % of control

Cc1c(Cl)cccc1NC(=O)OC(C)C
inactive: [7] 106 % of control | [8] 97 % of control | [9] 97 % of control

ClCC/C=C\C=C\CCCl
inactive: dose: 75.0 mg/kg/injection, schedule: Q01DX001 (ip), vehicle: saline 93 % of control | dose: 75.0 mg/kg/injection, schedule: Q04DX003 (ip), vehicle: saline 107 % of control | dose: 150.0 mg/kg/injection, schedule: Q01DX001 (ip), vehicle: saline 105 % of control | dose: 150.0 mg/kg/injection, schedule: Q04DX003 (ip), vehicle: saline 111 % of control | dose: 300.0 mg/kg/injection, schedule: Q01DX001 (ip), vehicle: saline 93 % of control | dose: 300.0 mg/kg/injection, schedule: Q04DX003 (ip), vehicle: saline 107 % of control

CCOC(=O)CC(c1cccc2ccccc12)c1cccc2ccc3ccccc3c12 (stereo not given)
inactive: [7] 92 % of control | [8] 86 % of control | [9] 91 % of control

Cc1cc(NC(=O)/C=C/c2ccc([N+](=O)[O-])cc2Cl)ccc1S(=O)(=O)F
inactive: dose: 100.0 mg/kg/injection, schedule: Q01DX001 (ip), vehicle: saline with Tween-80 92 % of control | dose: 200.0 mg/kg/injection, schedule: Q01DX001 (ip), vehicle: saline with Tween-80 93 % of control | dose: 400.0 mg/kg/injection, schedule: Q01DX001 (ip), vehicle: saline with Tween-80 92 % of control

Cc1ccc(C(C)C)cc1NC(=O)c1c(Cl)c(Cl)c(Cl)c(Cl)c1C(=O)O
inactive: dose: 25.0 mg/kg/injection, schedule: Q01DX009 (ip), vehicle: Klucel (hydroxypropylcellulose) (HPC) 108 % of control | dose: 50.0 mg/kg/injection, schedule: Q01DX009 (ip), vehicle: Klucel (hydroxypropylcellulose) (HPC) 91 % of control | [1] 103 % of control and 90 % of control

CCC(=O)C(C)C(=O)Nc1ccccc1 (stereo not given)
inactive: [4] 102 % of control | [5] 94 % of control | [6] 100 % of control
